From US7759389B2, “Chroman derivatives and uses thereof” (Roche Palo Alto LLC, priority 2004, dated 2010)
Counter-ions that a name gives are not always drawn.

Assays:
[1] = biological target: T1, recombinant human 5-HT6 receptor (Homo sapiens, UniProt P50406); test: Radioligand binding, competition for [3H]LSD in HEK293 cell membranes; conditions: [3H]LSD displacement, pH 7.4, 37° C., 75 min, read-out: pKi for 5-HT6 (converted)
T1 construct: expressed in transfected cells; host or cells: HEK293
T1 sequence (P50406 whole entry): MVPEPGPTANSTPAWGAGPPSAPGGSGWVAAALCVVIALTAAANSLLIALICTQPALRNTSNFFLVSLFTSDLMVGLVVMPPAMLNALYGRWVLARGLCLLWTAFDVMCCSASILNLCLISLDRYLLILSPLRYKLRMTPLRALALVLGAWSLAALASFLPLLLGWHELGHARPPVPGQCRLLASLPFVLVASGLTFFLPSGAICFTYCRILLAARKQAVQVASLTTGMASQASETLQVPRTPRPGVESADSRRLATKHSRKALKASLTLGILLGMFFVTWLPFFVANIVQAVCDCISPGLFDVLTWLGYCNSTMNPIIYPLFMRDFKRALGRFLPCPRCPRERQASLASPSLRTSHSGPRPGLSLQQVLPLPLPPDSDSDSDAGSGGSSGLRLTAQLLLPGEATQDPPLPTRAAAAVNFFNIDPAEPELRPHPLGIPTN
Description: (§1) The binding activity of compounds of this invention in vitro was determined as follows. Duplicate determinations of 5-HT6 ligand affinity were made by competing for binding of [^3H]LSD in cell membranes derived from HEK293 cells stably expressing recombinant human 5-HT6 receptor. Duplicate determinations of 5-HT2A ligand affinity were made by competing for binding of [^3H]Ketanserin (3-(2-(4-(4-fluorobenzoyl)piperidinol)ethyl)-2,4(1H,3H)-quinazolinedione) in cell membranes derived from CHO-K1 cells stably expressing recombinant human 5-HT2A receptor. Membranes were prepared from HEK 293 cell lines by the method described by Monsma et al., Molecular Pharmacology, Vol. 43 pp. 320-327 (1993), and from CHO-K1 cell lines as described by Bonhaus et al., Br J Pharmacol. June; 115(4):622-8 (1995).
(§2) For estimation of affinity at the 5-HT6 receptor, all determinations were made in assay buffer containing 50 mM Tris-HCl, 10 mM MgSO4, 0.5 mM EDTA, 1 mM ascorbic acid, pH 7.4 at 37° C., in a 250 microliter reaction volume. […]
(§3) Assay tubes containing [^3H] […] LSD or [^3H]Ketanserin were determined as radioactive counts per minute using Packard TopCount.
(§4) Displacement of [^3H]LSD or [^3H]Ketanserin from the binding sites was quantified by fitting concentration-binding data to a 4-parameter logistic equation: […]

[2] = biological target: T2, recombinant human 5-HT2A receptor (Homo sapiens, UniProt P28223); test: Radioligand binding, competition for [3H]Ketanserin in CHO-K1 cell membranes; conditions: [3H]Ketanserin displacement, pH 7.4, 32° C., 60 min, read-out: pKi for 5-HT2A (converted)
T2 construct: expressed in transfected cells; host or cells: CHO-K1
T2 sequence (P28223 whole entry): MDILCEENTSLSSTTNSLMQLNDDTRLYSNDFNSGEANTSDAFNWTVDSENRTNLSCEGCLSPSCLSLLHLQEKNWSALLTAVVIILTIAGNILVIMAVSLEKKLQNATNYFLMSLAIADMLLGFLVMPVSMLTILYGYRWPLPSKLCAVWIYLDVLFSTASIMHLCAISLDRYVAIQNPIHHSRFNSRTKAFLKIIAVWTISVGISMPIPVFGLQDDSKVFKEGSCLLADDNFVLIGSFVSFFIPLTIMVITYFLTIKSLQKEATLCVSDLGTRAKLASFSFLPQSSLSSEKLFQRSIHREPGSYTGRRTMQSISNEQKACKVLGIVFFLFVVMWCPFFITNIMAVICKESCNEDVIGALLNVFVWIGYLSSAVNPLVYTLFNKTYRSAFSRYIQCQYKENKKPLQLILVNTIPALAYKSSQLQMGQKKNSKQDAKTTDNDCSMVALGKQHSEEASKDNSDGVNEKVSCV
Description: as §1, §2, §3, §4

Row | melting point [°C] | Ki [1] [nM] | Ki [2] [nM] | SMILES
1 | 158.1 to 159.8 |  |  | CNCC1CCOc2cc(S(=O)(=O)c3ccccc3)ccc21 (stereo not drawn) (as salt: HCl)
2 |  | ~0.724 | ~20.4 | NCC1CCOc2cc(S(=O)(=O)c3ccccc3)ccc21 (stereo not drawn) [C-(7-Benzenesulfonyl-chroman-4-yl)-methylamine]
